Experimental data taken from patent US20230242585A1, “IMMUNOMODULATORS” (Bristol-Myers Squibb Company, priority 2020, published 2023).
Starred links: 1 amine or outer side, 2 acyl side, 3 side chain; linkers in the order of their positions; H or OH if unused. Positions of bridges follow the written chain, without caps; N, C: chain ends. Non-standard residues stand in square brackets, D forms with d. Residues, ends and D or L forms follow the SMILES beside them. X27 = O=C([C@H](CNC[C@H](O)[C@@H](O)[C@H](O[C@@H]1O[C@H](CO)[C@H](O)[C@H](O)[C@H]1O)[C@H](O)CO)N[*:1])[*:2]; X43 = O=C([C@H](CNC[C@@H](O)[C@H](O)[C@@H](O)[C@@H](O)CO)N[*:1])[*:2]; X11 = O=C([C@H](CNC[C@H](O)[C@@H](O)[C@@H](O)[C@H](O)CO)N[*:1])[*:2]; X58 = O=C([C@H](CNC[C@H](O)[C@@H](O)[C@H](O)[C@H](O)CO)N[*:1])[*:2]; X32 = O=C([C@H](CCNC[C@@H](O)[C@H](O)[C@@H](O)CO)N[*:1])[*:2]; X31 = O=C([C@H](CNC[C@@H](O)[C@H](O)[C@@H](O)CO)N[*:1])[*:2]; X6 = O=C([C@H](CCNC[C@H](O)[C@@H](O)[C@H](O)CO)N[*:1])[*:2]; X5 = O=C([C@H](CNC[C@H](O)[C@@H](O)[C@H](O)CO)N[*:1])[*:2]; Trp(1-CH2COOH) = N[C@@H](Cc1cn(CC(=O)O)c2ccccc12)C(=O)O; Hyp = O=C(O)[C@@H]1C[C@@H](O)CN1; NMeNle = CCCC[C@H](NC)C(=O)O; NMeA = CN[C@@H](C)C(=O)O; Dab = NCC[C@H](N)C(=O)O

Molecular target: T1, PD-1/PD-L1 (Homo sapiens, UniProt Q9NZQ7)
T1 construct: TVMV protease site (linker) (C); made in house; host or cells: HEK293T cells
T1 sequence (Q9NZQ7 18-239): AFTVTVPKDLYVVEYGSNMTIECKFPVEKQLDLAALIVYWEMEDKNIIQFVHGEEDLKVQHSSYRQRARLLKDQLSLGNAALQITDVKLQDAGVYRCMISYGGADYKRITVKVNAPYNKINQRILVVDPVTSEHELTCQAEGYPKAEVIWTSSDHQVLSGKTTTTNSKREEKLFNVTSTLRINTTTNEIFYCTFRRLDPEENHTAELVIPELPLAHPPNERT
Assay: PD-1/PD-L1 Homogenous Time-Resolved Fluorescence (HTRF) binding assay
Conditions: PD-L1-His 10 nM, PD-1-Ig 20 nM
Source text: The ability of the compounds of formula (I) to bind to PD-L1 was investigated using a PD-1/PD-L1 Homogenous Time-Resolved Fluorescence (HTRF) binding assay.
The interaction of PD-1 and PD-L1 can be assessed using soluble, purified preparations of the extracellular domains of the two proteins. The PD-1 and PD-L1 protein extracellular domains were expressed as fusion proteins with detection tags, for PD-1, the tag was the Fc portion of Immunoglobulin (PD-1-Ig) and for PD-L1 it was the 6 histidine motif (PD-L1-His). All binding studies were performed in an HTRF assay buffer consisting of dPBS supplemented with 0.1% […] bovine serum albumin and 0.05% (v/v) Tween-20. For the h/PD-L1-His binding assay, inhibitors were pre-incubated with PD-L1-His (10 nM final) for 15 m in 4 µl of assay buffer, followed by addition of PD-1-Ig (20 nM final) in 1 µl of assay buffer and further incubation for 15 m. HTRF detection was achieved using europium crypate-labeled anti-Ig (1 nM final) and allophycocyanin (APC) labeled anti-His (20 nM final). Antibodies were diluted in HTRF detection buffer and 5 µl was dispensed on top of the binding reaction. The reaction mixture was allowed to equilibrate for 30 minutes and the resulting signal (665 nm/620 nm ratio) was obtained using an EnVision fluorometer. Additional binding assays were established between the human proteins PD-1-Ig/PD-L2-His (20 & 5 nM, respectively) and CD80-His/PD-L1-Ig (100 & 10 nM, respectively).
Recombinant Proteins: Human PD-1 (25-167) with a C-terminal human Fc domain of immunoglobulin G (Ig) epitope tag [hPD-1 (25-167)-3S-IG] and human PD-L1 (18-239) with a C-terminal His epitope tag [hPD-L1(18-239)-TVMV-His] were expressed in HEK293T cells and purified sequentially by ProteinA affinity chromatography and size exclusion chromatography. Human PD-L2-His and CD80-His was obtained through commercial sources.
Table 1 lists the IC50 values for representative examples of this disclosure measured in the PD-1/PD-L1 Homogenous Time-Resolved Fluorescence (HTRF) binding assay.

Row | SMILES | IC50
1 | CCCC[C@H]1C(=O)N(C)[C@@H](CCCC)C(=O)N[C@@H](CC(C)C)C(=O)N[C@H](C(=O)NCC(N)=O)CSCC(=O)N[C@@H](Cc2ccc(O)cc2)C(=O)N(C)[C@@H](C)C(=O)N[C@@H](CC(N)=O)C(=O)N2CCC[C@H]2C(=O)N[C@@H](CNC[C@H](O)[C@@H](O)[C@H](O[C@@H]2O[C@H](CO)[C@H](O)[C@H](O)[C@H]2O)[C@H](O)CO)C(=O)N[C@@H](CC(C)C)C(=O)N2C[C@H](O)C[C@H]2C(=O)N[C@@H](Cc2c[nH]c3ccccc23)C(=O)N[C@@H](CCN)C(=O)N[C@@H](Cc2cn(CC(=O)O)c3ccccc23)C(=O)N1C [Example 2013] ({CH2CO}-Y[NMeA]NP[X27]L[Hyp]W[Dab][Trp(1-CH2COOH)][NMeNle][NMeNle]LCG-NH2; thioether N-14) | 9.7 nM
2 | CCCC[C@H]1C(=O)N(C)[C@@H](CCCC)C(=O)N[C@@H](CC(C)C)C(=O)N[C@H](C(=O)NCC(N)=O)CSCC(=O)N[C@@H](Cc2ccc(O)cc2)C(=O)N(C)[C@@H](C)C(=O)N[C@@H](CC(N)=O)C(=O)N2CCC[C@H]2C(=O)N[C@@H](CNC[C@H](O)[C@@H](O)[C@H](O)CO)C(=O)N[C@@H](CC(C)C)C(=O)N2C[C@H](O)C[C@H]2C(=O)N[C@@H](Cc2c[nH]c3ccccc23)C(=O)N[C@@H](CCNC[C@H](O)[C@@H](O)[C@H](O)CO)C(=O)N[C@@H](Cc2cn(CC(=O)O)c3ccccc23)C(=O)N1C [Example 2014] ({CH2CO}-Y[NMeA]NP[X5]L[Hyp]W[X6][Trp(1-CH2COOH)][NMeNle][NMeNle]LCG-NH2; thioether N-14) | 2.5 nM
3 | CCCC[C@H]1C(=O)N(C)[C@@H](CCCC)C(=O)N[C@@H](CC(C)C)C(=O)N[C@H](C(=O)NCC(N)=O)CSCC(=O)N[C@@H](Cc2ccc(O)cc2)C(=O)N(C)[C@@H](C)C(=O)N[C@@H](CC(N)=O)C(=O)N2CCC[C@H]2C(=O)N[C@@H](CNC[C@H](O)[C@@H](O)[C@H](O)[C@H](O)CO)C(=O)N[C@@H](CC(C)C)C(=O)N2C[C@H](O)C[C@H]2C(=O)N[C@@H](Cc2c[nH]c3ccccc23)C(=O)N[C@@H](CCN)C(=O)N[C@@H](Cc2cn(CC(=O)O)c3ccccc23)C(=O)N1C [Example 2015] ({CH2CO}-Y[NMeA]NP[X58]L[Hyp]W[Dab][Trp(1-CH2COOH)][NMeNle][NMeNle]LCG-NH2; thioether N-14) | 1.8 nM
4 | CCCC[C@H]1C(=O)N(C)[C@@H](CCCC)C(=O)N[C@@H](CC(C)C)C(=O)N[C@H](C(=O)NCC(N)=O)CSCC(=O)N[C@@H](Cc2ccc(O)cc2)C(=O)N(C)[C@@H](C)C(=O)N[C@@H](CC(N)=O)C(=O)N2CCC[C@H]2C(=O)N[C@@H](CNC[C@@H](O)[C@H](O)[C@@H](O)[C@@H](O)CO)C(=O)N[C@@H](CC(C)C)C(=O)N2C[C@H](O)C[C@H]2C(=O)N[C@@H](Cc2c[nH]c3ccccc23)C(=O)N[C@@H](CCN)C(=O)N[C@@H](Cc2cn(CC(=O)O)c3ccccc23)C(=O)N1C [Example 2016] ({CH2CO}-Y[NMeA]NP[X43]L[Hyp]W[Dab][Trp(1-CH2COOH)][NMeNle][NMeNle]LCG-NH2; thioether N-14) | 2 nM
5 | CCCC[C@H]1C(=O)N(C)[C@@H](CCCC)C(=O)N[C@@H](CC(C)C)C(=O)N[C@H](C(=O)NCC(N)=O)CSCC(=O)N[C@@H](Cc2ccc(O)cc2)C(=O)N(C)[C@@H](C)C(=O)N[C@@H](CC(N)=O)C(=O)N2CCC[C@H]2C(=O)N[C@@H](CNC[C@H](O)[C@@H](O)[C@@H](O)[C@H](O)CO)C(=O)N[C@@H](CC(C)C)C(=O)N2C[C@H](O)C[C@H]2C(=O)N[C@@H](Cc2c[nH]c3ccccc23)C(=O)N[C@@H](CCN)C(=O)N[C@@H](Cc2cn(CC(=O)O)c3ccccc23)C(=O)N1C [Example 2017] ({CH2CO}-Y[NMeA]NP[X11]L[Hyp]W[Dab][Trp(1-CH2COOH)][NMeNle][NMeNle]LCG-NH2; thioether N-14) | 7.2 nM
6 | CCCC[C@H]1C(=O)N(C)[C@@H](CCCC)C(=O)N[C@@H](CC(C)C)C(=O)N[C@H](C(=O)NCC(N)=O)CSCC(=O)N[C@@H](Cc2ccc(O)cc2)C(=O)N(C)[C@@H](C)C(=O)N[C@@H](CC(N)=O)C(=O)N2CCC[C@H]2C(=O)N[C@@H](CNC[C@@H](O)[C@H](O)[C@@H](O)CO)C(=O)N[C@@H](CC(C)C)C(=O)N2C[C@H](O)C[C@H]2C(=O)N[C@@H](Cc2c[nH]c3ccccc23)C(=O)N[C@@H](CCNC[C@@H](O)[C@H](O)[C@@H](O)CO)C(=O)N[C@@H](Cc2cn(CC(=O)O)c3ccccc23)C(=O)N1C [Example 2018] ({CH2CO}-Y[NMeA]NP[X31]L[Hyp]W[X32][Trp(1-CH2COOH)][NMeNle][NMeNle]LCG-NH2; thioether N-14) | 2.4 nM
